Starred links: 1 amine or outer side, 2 acyl side, 3 side chain; linkers in the order of their positions; H or OH if unused. Positions of bridges follow the written chain, without caps; N, C: chain ends. Non-standard residues stand in square brackets, D forms with d. Residues, ends and D or L forms follow the SMILES beside them. *: point of attachment. Phe(4-(CH2)5CO) = O=C([C@H](Cc1ccc(CCCCCC(=O)[*:3])cc1)N[*:1])[*:2]; Phe(3-(CH2)4CO) = O=C([C@H](Cc1cccc(CCCCC(=O)[*:3])c1)N[*:1])[*:2]; NEtPhe = CCN[C@@H](Cc1ccccc1)C(=O)O; NMeF = CN[C@@H](Cc1ccccc1)C(=O)O; NMeI = CC[C@H](C)[C@H](NC)C(=O)O; AllylGly = C=CC[C@H](N)C(=O)O; NMeL = CN[C@@H](CC(C)C)C(=O)O; Ala(CN) = N#CC[C@H](N)C(=O)O; NMeV = CN[C@H](C(=O)O)C(C)C; NMeA = CN[C@@H](C)C(=O)O; Piperidide = C1CCN(*)CC1; dNMeA = CN[C@H](C)C(=O)O; Aze = O=C(O)[C@@H]1CCN1; Sar = CNCC(=O)O; tBu = CC(C)(C)*

Data on 20 compounds can be found in patent US9409952B2, “Peptide-compound cyclization method” (Chugai Seiyaku Kabushiki Kaisha, priority 2011, dated 2016).

One series in a line: Metabolic stability in human hepatic microsome. The following applies: human, microsomes, pH 7.4, CL NADPH(+). In kind it is in vitro ADME.
For `CC[C@H](C)[C@@H]1NC(=O)[C@H](C)NC(=O)[C@H](CC(C)C)N(C)C(=O)[C@H](CC(C)C)NC(=O)[C@H](Cc2ccccc2)NC(=O)[C@H](C(C)C)NC(=O)[C@@H]2CCCN2C(=O)[C@H](CC(C)C)NC(=O)[C@H](Cc2ccccc2)N(C)C(=O)[C@H]([C@@H](C)O)NC(=O)CNC(=O)[C@H](C)NC(=O)C[C@@H](C(=O)N2CCCCC2)NC1=O` [DP-20] (AGT[NMeF]LPVFL[NMeL]AID-Piperidide; lactam N-13), the microsomal CLint at 1 uM came to 97 µL/min/mg. On the same count and under the same terms, under `CC(C)C[C@@H]1NC(=O)[C@H](C)N(C)C(=O)[C@H](C(C)C)N(C)C(=O)[C@H](Cc2ccccc2)NC(=O)CN(C)C(=O)[C@H]([C@@H](C)O)NC(=O)[C@@H]2CCCN2C(=O)[C@H](CC(C)C)NC(=O)[C@H](C)NC(=O)C[C@@H](C(=O)N2CCCCC2)NC(=O)[C@H](CC(C)C)N(C)C1=O` [DP-32] (ALPT[Sar]F[NMeV][NMeA]L[NMeL]D-Piperidide; lactam N-11) stands 26 µL/min/mg; under `CC[C@H](C)[C@H]1C(=O)N[C@@H](Cc2ccccc2)C(=O)N(C)[C@@H](Cc2ccccc2)C(=O)N[C@@H]([C@@H](C)O)C(=O)N2CCC[C@H]2C(=O)N[C@@H](CC(C)C)C(=O)N[C@H](C(=O)N2CCCCC2)CC(=O)N[C@@H](C)C(=O)N[C@@H](C(C)C)C(=O)N(C)CC(=O)N[C@@H](CC(C)C)C(=O)N(C)[C@@H](CC(C)C)C(=O)N[C@@H](C)C(=O)N1C` [DP-1] (AV[Sar]L[NMeL]A[NMeI]F[NMeF]TPLD-Piperidide; lactam N-13), 27 µL/min/mg; under `CC[C@H](C)[C@H]1C(=O)N(C)[C@@H](CC(C)C)C(=O)NCC(=O)N(C)[C@@H](C)C(=O)N[C@@H](Cc2ccccc2)C(=O)N[C@@H]([C@@H](C)O)C(=O)N(C)[C@@H](CC(C)C)C(=O)N[C@@H](Cc2ccccc2)C(=O)N(C)[C@@H](C(C)C)C(=O)N[C@H](C(=O)N2CCCCC2)CC(=O)N[C@@H](C)C(=O)N[C@@H](CC(C)C)C(=O)N1C` [DP-8] (AL[NMeI][NMeL]G[NMeA]FT[NMeL]F[NMeV]D-Piperidide; lactam N-12), 36 µL/min/mg. With `CC[C@H](C)[C@@H]1NC(=O)[C@H](C)NC(=O)C[C@@H](C(=O)N2CCCCC2)NC(=O)[C@H](Cc2ccccc2)NC(=O)[C@H](C(C)C)NC(=O)[C@H](CC(C)C)NC(=O)[C@H](C)NC(=O)[C@H](Cc2ccccc2)N(C)C(=O)[C@H]([C@@H](C)O)NC(=O)[C@H](CC(C)C)NC(=O)[C@H](CC(C)C)N(C)C1=O` [DP-13] (AI[NMeL]LT[NMeF]ALVFD-Piperidide; lactam N-11), the microsomal CLint at 1 uM worked out at 66 µL/min/mg. Still for that read-out and setting: under `CC[C@H](C)[C@H](NC(=O)[C@@H]1CCCN1C(=O)[C@@H](NC(=O)[C@@H]1CC(=O)N[C@@H](C)C(=O)N[C@@H](CC(C)C)C(=O)N(C)[C@@H](CC(C)C)C(=O)N[C@@H](C)C(=O)N[C@@H](CC(C)C)C(=O)N(C)[C@@H](Cc2ccccc2)C(=O)N[C@@H](Cc2ccccc2)C(=O)N1)[C@@H](C)O)C(=O)N1CCCCC1` [DP-45] (AL[NMeL]AL[NMeF]FDTPI-Piperidide; lactam N-8) stands 129 µL/min/mg. In turn, `CC[C@H](C)[C@H]1C(=O)N[C@@H](C)C(=O)N[C@H](C(=O)N2CCCCC2)CC(=O)N[C@@H](C)C(=O)N[C@@H]([C@@H](C)O)C(=O)N(C)[C@@H](CC(C)C)C(=O)N[C@@H](CC(C)C)C(=O)N[C@@H](Cc2ccccc2)C(=O)N2CCC[C@H]2C(=O)N[C@@H](Cc2ccccc2)C(=O)N[C@@H](C(C)C)C(=O)N(C)CC(=O)N1C` [DP-6] (AT[NMeL]LFPFV[Sar][NMeI]AD-Piperidide; lactam N-12) came in with a microsomal CLint at 1 uM of 35 µL/min/mg.

The same series, now with this note: microsomes, pH 7.4; human hepatic microsome, NADPH(+); read-out: CL NADPH(+).
In the case of `CC(C)C[C@@H]1NC(=O)[C@H](CC(C)C)N(C)C(=O)[C@H](C)N(C)C(=O)[C@@H](C(C)C)NC(=O)C[C@@H](C(=O)N2CCCCC2)NC(=O)[C@H]([C@@H](C)O)NC(=O)[C@H](Cc2ccccc2)N(C)C(=O)[C@H](C)N(C)C(=O)[C@H](CC(C)C)N(C)C(=O)[C@H](CC#N)NC(=O)[C@H](Cc2ccccc2)N(C)C1=O` [DP-630] ([dV][NMeA][NMeL]L[NMeF][Ala(CN)][NMeL][NMeA][NMeF]TD-Piperidide; lactam N-11), the microsomal CLint at 1 uM was found to be 34 µL/min/mg. As for `CC(C)C[C@H]1C(=O)N(C)CC(=O)N(C)[C@@H](C)C(=O)N[C@@H]([C@@H](C)O)C(=O)N[C@H](C(=O)N2CCCCC2)CC(=O)N[C@H](C(C)C)C(=O)N(C)[C@@H](C)C(=O)N(C)[C@@H](CC(C)C)C(=O)N[C@@H](Cc2c[nH]c3ccccc23)C(=O)N(C)[C@@H](Cc2ccccc2)C(=O)N[C@@H](Cc2ccccc2)C(=O)N1C` [DP-623] ([dV][NMeA][NMeL]W[NMeF]F[NMeL][Sar][NMeA]TD-Piperidide; lactam N-11), the microsomal CLint at 1 uM was 16 µL/min/mg. For `CCN1C(=O)[C@H](C)NC(=O)[C@H](Cc2ccccc2)N(C)C(=O)[C@H](CC(C)C)N(C)C(=O)[C@H](CC(C)C)NC(=O)[C@@H](C)N(C)C(=O)C[C@@H](C(=O)N2CCCCC2)NC(=O)[C@H](CC(C)C)N(C)C(=O)CN(C)C(=O)[C@H]([C@@H](C)O)NC(=O)[C@H](CC(C)C)N(C)C(=O)[C@@H]1Cc1ccccc1` [DP-637] ([dNMeA]L[NMeL][NMeF]A[NEtPhe][NMeL]T[Sar][NMeL]D-Piperidide; lactam N-11), the microsomal CLint at 1 uM was 56 µL/min/mg. Consider `CC[C@H](C)[C@H]1C(=O)NCC(=O)N(C)[C@@H](CC(C)C)C(=O)N[C@@H]([C@@H](C)O)C(=O)N2CCC[C@H]2C(=O)N[C@@H](Cc2ccccc2)C(=O)N[C@H](C(=O)N2CCCCC2)CC(=O)N2CC[C@H]2C(=O)N[C@@H](Cc2ccccc2)C(=O)N(C)[C@@H](CC(C)C)C(=O)N[C@@H](CC(C)C)C(=O)N1C` [DP-550] ([Aze]F[NMeL]L[NMeI]G[NMeL]TPFD-Piperidide; lactam N-11), for which the microsomal CLint at 1 uM turned out to be 108 µL/min/mg. In the case of `CC[C@H](C)[C@H]1C(=O)N[C@@H]([C@@H](C)O)C(=O)N(C)CC(=O)N(C)[C@@H](CC(C)C)C(=O)N[C@H](C(=O)N2CCCCC2)CC(=O)N(C)[C@H](C)C(=O)N[C@@H](CC(C)C)C(=O)N(C)[C@@H](CC(C)C)C(=O)N(CC)[C@@H](Cc2ccccc2)C(=O)N[C@@H](C)C(=O)N(C)[C@@H](Cc2ccccc2)C(=O)N1C` [DP-633] ([dNMeA]L[NMeL][NEtPhe]A[NMeF][NMeI]T[Sar][NMeL]D-Piperidide; lactam N-11), the microsomal CLint at 1 uM worked out at 98 µL/min/mg. In the case of `C=C1CCC(=O)N(C)[C@@H](Cc2ccccc2)C(=O)N[C@@H](CC(C)C)C(=O)N(C)[C@@H](CC(C)C)C(=O)N[C@@H]([C@@H](C)O)C(=O)N(C)CC(=O)N(C)[C@@H]([C@@H](C)CC)C(=O)N[C@@H](COC(C)(C)C)C(=O)N(C)[C@@H](Cc2ccccc2)C(=O)N(C)[C@@H](C(C)C)C(=O)N[C@H](C(=O)N2CCCCC2)Cc2ccc1cc2` [DP-850], the microsomal CLint at 1 uM worked out at 119 µL/min/mg.

Regarding `CC[C@H](C)[C@@H]1NC(=O)[C@H](Cc2ccccc2)N(C)C(=O)[C@H](Cc2ccccc2)NC(=O)[C@H](C(C)C)N(C)C(=O)[C@H](CC(C)C)N(C)C(=O)[C@H](CC(C)C)NC(=O)[C@H](C)NC(=O)C[C@@H](C(=O)N2CCCCC2)NC(=O)[C@H]([C@@H](C)O)NC(=O)CNC(=O)[C@H](C)N(C)C1=O` [DP-85] (AL[NMeL][NMeV]F[NMeF]I[NMeA]GTD-Piperidide; lactam N-11), the microsomal CLint at 1 uM is 58 µL/min/mg.

With `C=CC[C@@H]1NC(=O)[C@H](CC(C)C)N(C)C(=O)[C@H](C)N(C)C(=O)[C@@H](C(C)C)NC(=O)C[C@@H](C(=O)N2CCCCC2)NC(=O)[C@H]([C@@H](C)O)NC(=O)[C@H](CC(C)C)N(C)C(=O)[C@H](C)N(C)C(=O)[C@H](CC(C)C)N(C)C(=O)[C@H](Cc2ccccc2)NC(=O)[C@H](Cc2ccccc2)N(C)C1=O` [DP-628] ([dV][NMeA][NMeL][AllylGly][NMeF]F[NMeL][NMeA][NMeL]TD-Piperidide; lactam N-11), the microsomal CLint at 1 uM is 36 µL/min/mg. Take `CC[C@H](C)[C@H]1C(=O)N[C@@H](COC(C)(C)C)C(=O)N(C)[C@@H](Cc2ccccc2)C(=O)N(C)[C@@H](C(C)C)C(=O)N[C@H](C(=O)N2CCCCC2)Cc2cccc(c2)CCCCC(=O)N(C)[C@@H](Cc2ccccc2)C(=O)N[C@@H](CC(C)C)C(=O)N(C)[C@@H](CC(C)C)C(=O)N[C@@H]([C@@H](C)O)C(=O)N(C)CC(=O)N1C` [DP-853] ([NMeF]L[NMeL]T[Sar][NMeI]S(tBu)[NMeF][NMeV][Phe(3-(CH2)4CO)]-Piperidide; lactam N-10): the microsomal CLint at 1 uM is 120 µL/min/mg. In the case of `CC[C@H](C)[C@H]1C(=O)N[C@H](C(=O)N2CCCCC2)CC(=O)N[C@@H](C)C(=O)N[C@@H]([C@@H](C)O)C(=O)N(C)[C@@H](Cc2ccccc2)C(=O)N[C@@H](CC(C)C)C(=O)N2CCC[C@H]2C(=O)N(C)[C@@H](C(C)C)C(=O)N[C@@H](Cc2ccccc2)C(=O)N(C)CC(=O)N(C)[C@@H](CC(C)C)C(=O)N[C@@H](C)C(=O)N1C` [DP-27] (AT[NMeF]LP[NMeV]F[Sar][NMeL]A[NMeI]D-Piperidide; lactam N-12), the microsomal CLint at 1 uM worked out at 31 µL/min/mg.

Turning to `CC[C@H](C)[C@@H]1NC(=O)[C@H](Cc2ccccc2)N(C)C(=O)[C@H](Cc2ccccc2)NC(=O)[C@H](CC(C)C)N(C)C(=O)[C@H](C(C)C)NC(=O)[C@H](CC(C)C)NC(=O)CCCCCc2ccc(cc2)C[C@@H](C(=O)N2CCCCC2)NC(=O)[C@H]([C@@H](C)O)NC(=O)[C@H](CC(C)C)NC(=O)[C@H](C)N(C)C1=O` [DP-892] (LV[NMeL]F[NMeF]I[NMeA]LT[Phe(4-(CH2)5CO)]-Piperidide; lactam N-10), the microsomal CLint at 1 uM came to 57 µL/min/mg. For `CC[C@H](C)[C@H]1C(=O)N(C)[C@@H](C)C(=O)N(C)[C@@H](Cc2ccccc2)C(=O)N[C@@H]([C@@H](C)O)C(=O)N(C)[C@@H](Cc2ccccc2)C(=O)N(C)[C@@H](CC(C)C)C(=O)N2CCC[C@H]2C(=O)N[C@H](C(=O)N2CCCCC2)Cc2cccc(c2)CCCCC(=O)NCC(=O)N(C)[C@@H](CC(C)C)C(=O)N1C` [DP-860] (G[NMeL][NMeI][NMeA][NMeF]T[NMeF][NMeL]P[Phe(3-(CH2)4CO)]-Piperidide; lactam N-10), the microsomal CLint at 1 uM amounted to 322 µL/min/mg. As for `CC[C@H](C)[C@@H]1NC(=O)[C@H](Cc2ccccc2)N(C)C(=O)[C@H](CC(C)C)N(C)C(=O)[C@H](CC(C)C)NC(=O)[C@H](C)NC(=O)[C@H](C(C)C)N(C)C(=O)CNC(=O)CCCCCc2ccc(cc2)C[C@@H](C(=O)N2CCCCC2)NC(=O)[C@H](CC(C)C)N(C)C(=O)[C@H]([C@@H](C)O)NC(=O)[C@@H]2CCCN2C(=O)[C@H](Cc2ccccc2)NC1=O` [DP-902] (G[NMeV]AL[NMeL][NMeF]IFPT[NMeL][Phe(4-(CH2)5CO)]-Piperidide; lactam N-12), the microsomal CLint at 1 uM was found to be 121 µL/min/mg.
